Results: PubChem BioAssay (NCI)
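Test compounds were applied to cells in 96-well plates for 48 hours at 5 doses. GI50: concentration for 50% inhibition of growth. TGI: concentration producing complete growth inhibition.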

Key:
Assay in all cases: NCI-60 cell line screen, 48 h
IGROV1 ovarian = tested on: IGROV1 ovarian
SR leukemia = tested on: SR leukemia
LOX IMVI melanoma = tested on: LOX IMVI melanoma
MOLT-4 leukemia = tested on: MOLT-4 leukemia
RXF 393 renal = tested on: RXF 393 renal
M14 melanoma = tested on: M14 melanoma
ACHN renal = tested on: ACHN renal
OVCAR-8 ovarian = tested on: OVCAR-8 ovarian
HOP-92 NSCLC = tested on: HOP-92 NSCLC
CAKI-1 renal = tested on: CAKI-1 renal
SK-MEL-2 melanoma = tested on: SK-MEL-2 melanoma
HT29 colon = tested on: HT29 colon
MDA-MB-435 = tested on: MDA-MB-435
786-0 renal = tested on: 786-0 renal
HS 578T breast = tested on: HS 578T breast
HOP-62 NSCLC = tested on: HOP-62 NSCLC
DU-145 prostate = tested on: DU-145 prostate
SW-620 colon = tested on: SW-620 colon
HCC-2998 colon = tested on: HCC-2998 colon
A549 NSCLC = tested on: A549 NSCLC
HCT-116 colon = tested on: HCT-116 colon
SN12C renal = tested on: SN12C renal
NCI-H226 lung = tested on: NCI-H226 lung
A498 renal = tested on: A498 renal
SNB-75 CNS = tested on: SNB-75 CNS
CCRF-CEM leukemia = tested on: CCRF-CEM leukemia
T-47D breast = tested on: T-47D breast
NCI-H522 lung = tested on: NCI-H522 lung
SNB-19 CNS = tested on: SNB-19 CNS
EKVX NSCLC = tested on: EKVX NSCLC
U251 CNS = tested on: U251 CNS
UACC-257 melanoma = tested on: UACC-257 melanoma
TK-10 renal = tested on: TK-10 renal
SF-268 CNS = tested on: SF-268 CNS
PC-3 prostate = tested on: PC-3 prostate
UACC-62 melanoma = tested on: UACC-62 melanoma
BT-549 breast = tested on: BT-549 breast
NCI-H23 lung = tested on: NCI-H23 lung
SF-295 CNS = tested on: SF-295 CNS
KM12 colon = tested on: KM12 colon
SK-MEL-28 melanoma = tested on: SK-MEL-28 melanoma
OVCAR-4 ovarian = tested on: OVCAR-4 ovarian
SK-MEL-5 melanoma = tested on: SK-MEL-5 melanoma
COLO 205 colon = tested on: COLO 205 colon
NCI/ADR-RES ovarian = tested on: NCI/ADR-RES ovarian
OVCAR-5 ovarian = tested on: OVCAR-5 ovarian
K-562 leukemia = tested on: K-562 leukemia
SK-OV-3 ovarian = tested on: SK-OV-3 ovarian
HL-60(TB) leukemia = tested on: HL-60(TB) leukemia
UO-31 renal = tested on: UO-31 renal
HCT-15 colon = tested on: HCT-15 colon
MALME-3M melanoma = tested on: MALME-3M melanoma
NCI-H460 lung = tested on: NCI-H460 lung
MCF7 breast = tested on: MCF7 breast
SF-539 CNS = tested on: SF-539 CNS
RPMI-8226 leukemia = tested on: RPMI-8226 leukemia
MDA-MB-231 breast = tested on: MDA-MB-231 breast
OVCAR-3 ovarian = tested on: OVCAR-3 ovarian

NCCSC1(O)C(=O)c2ccccc2-c2ccccc21 (stereo not drawn)
TGI (IGROV1 ovarian): 3730 nM
TGI (SR leukemia): 1880 nM
TGI (LOX IMVI melanoma): 717 nM
TGI (MOLT-4 leukemia): 1210 nM
TGI (RXF 393 renal): 3010 nM
TGI (M14 melanoma): 4250 nM
TGI (ACHN renal): 2230 nM
TGI (OVCAR-8 ovarian): 1160 nM
GI50 (HOP-92 NSCLC): 1300 nM
TGI (HOP-92 NSCLC): 2620 nM
GI50 (CAKI-1 renal): 1630 nM
TGI (CAKI-1 renal): 3050 nM
TGI (SK-MEL-2 melanoma): 3470 nM
TGI (HT29 colon): 3800 nM
TGI (MDA-MB-435): 207 nM
TGI (786-0 renal): 3460 nM
TGI (HS 578T breast): 6200 nM
TGI (HOP-62 NSCLC): 3220 nM
TGI (DU-145 prostate): 2280 nM
TGI (SW-620 colon): 3160 nM
GI50 (HCC-2998 colon): 2010 nM
TGI (HCC-2998 colon): 3560 nM
TGI (A549 NSCLC): 2910 nM
TGI (HCT-116 colon): 1040 nM
TGI (SN12C renal): 2760 nM
TGI (NCI-H226 lung): 2990 nM
GI50 (A498 renal): 1710 nM
TGI (A498 renal): 3110 nM
TGI (SNB-75 CNS): 2400 nM
TGI (CCRF-CEM leukemia): 6820 nM
TGI (T-47D breast): 2110 nM
TGI (NCI-H522 lung): 2950 nM
TGI (SNB-19 CNS): 2860 nM
TGI (EKVX NSCLC): 3110 nM
TGI (U251 CNS): 2160 nM
TGI (UACC-257 melanoma): 2090 nM
TGI (TK-10 renal): 3260 nM
TGI (SF-268 CNS): 2910 nM
TGI (PC-3 prostate): 2560 nM
TGI (UACC-62 melanoma): 2910 nM
GI50 (BT-549 breast): 1560 nM
TGI (BT-549 breast): 2900 nM
TGI (NCI-H23 lung): 3750 nM
TGI (SF-295 CNS): 2280 nM
TGI (KM12 colon): 3330 nM
TGI (SK-MEL-28 melanoma): 2850 nM
TGI (OVCAR-4 ovarian): 556 nM
TGI (SK-MEL-5 melanoma): 1340 nM
TGI (COLO 205 colon): 3840 nM
TGI (NCI/ADR-RES ovarian): 1400 nM
TGI (OVCAR-5 ovarian): 3340 nM
TGI (K-562 leukemia): 2430 nM
TGI (SK-OV-3 ovarian): 2950 nM
TGI (HL-60(TB) leukemia): 2550 nM
TGI (UO-31 renal): 2870 nM
TGI (HCT-15 colon): 2540 nM
TGI (MALME-3M melanoma): 2840 nM
TGI (NCI-H460 lung): 3340 nM
TGI (MCF7 breast): 3640 nM
TGI (SF-539 CNS): 2670 nM
TGI (RPMI-8226 leukemia): 637 nM
TGI (MDA-MB-231 breast): 2530 nM
TGI (OVCAR-3 ovarian): 380 nM
